The values that follow come from patent publication US11242327B2, “Analgesic compounds” (RECURIUM IP HOLDINGS, LLC, priority 2017, dated 2022).

Series [1] concerns the target Opiate κ (Homo sapiens, UniProt P41145). The experiment in a line: NSAIDS and Opioid Receptor Test: Opiate κ. It counts as binding. As to conditions: 10 μM. On the procedure: (§1) Compounds were screened as DMSO solutions at 10 μM, 100 μM, or 200 μM and values represent percent inhibition of control-specific binding. […] As NSAID and opioid mechanisms of action are precluded, a person of ordinary skill in the art understands that undesirable side effects associated with inhibition of COX receptors in NSAIDs and activation of opiate receptors in opioids can be avoided by compounds described herein. Furthermore, opioids are known to lose their analgesic potency after to continued administration. (See Benyamin, et al. “Opioid Complications and Side Effects” Pain Physician 11 (2008): S105-S120). As the data indicates compounds described herein have a different mechanism action compared to opioids, a person of ordinary skill in the art would appreciate that compounds described herein would not be expected to lose their analgesic potency like opioids after continued admininistration.

For series [2], the target named is Opiate μ (Homo sapiens, UniProt P35372). As to the kind of experiment: NSAIDS and Opioid Receptor Test: Opiate μ. The series is classed as binding. To be noted: 10 μM. On the procedure:
as §1

Series [3] concerns the target COX-1 (Homo sapiens, UniProt P23219). As to the kind of experiment: NSAIDS and Opioid Receptor Test: COX-1. It counts as biochemical. To be noted: read-out: % Inhibition, COX-1 (human). On the procedure: as §1
The target of series [4] is Opiate δ1 (Homo sapiens, UniProt P41143). As to the kind of experiment: NSAIDS and Opioid Receptor Test: Opiate δ1. The series is classed as binding. On the procedure:
as §1

In series [5] the test system is adult male C57BL/6 mice. The experiment in a line: Conditioned Place Preference (Abuse) Test. The series is classed as in vivo, mouse. As to conditions: mouse, in vivo, ip. The text has this: A conditioned place preference (CPP) model was used to assess the reward properties of compounds of formulae (Ie), or a pharmaceutically acceptable salt of any of the foregoing, in adult male C57BL/6 mice. The CPP model apparatus consisted of a Plexiglas© test unit having three (A, B, C) compartments (9 cm×9 cm×16 cm) configured to allow access to all chambers. Compartments A and C had textually distinct flooring and wall marking. Mice were placed in the middle compartment with free access to the other compartments. On day 1 and 2, the “naive chamber preference” was assessed by placing the animal in the middle chamber twice a day (AM and PM) for 30 min on two consecutive days, with the chamber showing the greatest residence time being called the “preferred chamber”. On “drug pairing days” (days 5, 6, 7 and 8) mice were injected IP with vehicle (50 mM citric acid) in the AM in the preferred chamber and the drug/vehicle in the afternoon in the non-preferred chamber for four consecutive days. On the morning of day 9 (the day after the last drug pairing), the “drug chamber preference” was assessed by placing the mouse (absent any injection) in the middle chamber, with free access to all chambers for 30 minutes. This was repeated five days later (day fourteen), with no intervening drug treatment.
The time spent on days 9 and 14 (e.g. […] respectively after the last drug treatment) in the drug associated chamber was the test datum and is represented in FIG. 1. […] In contrast, there was no increase in the non-preferred chamber residence time when the least-preferred chamber was paired with saline, APAP or test compounds 2 or 28 on either days 9 or 14, or days 0 or 5.

Series [6] has as its target T1, COX-2 (Homo sapiens, UniProt P35354).
T1 sequence (P35354 18-604): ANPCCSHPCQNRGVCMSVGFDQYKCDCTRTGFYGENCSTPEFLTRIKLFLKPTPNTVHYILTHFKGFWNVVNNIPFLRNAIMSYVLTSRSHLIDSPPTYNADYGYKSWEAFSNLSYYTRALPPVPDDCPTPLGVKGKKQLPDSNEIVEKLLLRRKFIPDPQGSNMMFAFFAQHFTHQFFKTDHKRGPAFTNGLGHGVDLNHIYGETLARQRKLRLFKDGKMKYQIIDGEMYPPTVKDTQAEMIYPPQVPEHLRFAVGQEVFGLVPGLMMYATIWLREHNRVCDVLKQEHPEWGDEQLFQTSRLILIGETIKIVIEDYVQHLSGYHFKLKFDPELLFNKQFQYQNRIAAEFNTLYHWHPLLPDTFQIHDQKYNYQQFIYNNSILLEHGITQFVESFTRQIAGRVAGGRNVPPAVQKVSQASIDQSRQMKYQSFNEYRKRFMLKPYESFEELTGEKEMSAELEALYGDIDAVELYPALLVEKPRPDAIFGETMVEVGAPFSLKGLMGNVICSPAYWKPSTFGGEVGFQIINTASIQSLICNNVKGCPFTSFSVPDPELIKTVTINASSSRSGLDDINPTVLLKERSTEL
The experiment in a line: NSAIDS and Opioid Receptor Test: COX-2. It counts as biochemical. As to conditions: read-out: % Inhibition, COX-2 (human). Here is the method: as §1

Series [7] concerns male Sprague-Dawley rats. The experiment in a line: UVB Inflammatory Pain Test (thermal hyperalgesia). As to conditions: rat, oral, 300 mg/kg. It counts as in vivo. Here is the method:
UVB irradiation to the surface of the hind paw was used to induce cutaneous inflammatory pain in non-fasted male Sprague-Dawley rats weighing 175-300 g. On Day −3, animals were restrained and the plantar surface of the left hind paw was exposed to 350 mJoules/cm^2 of UVB irradiation using a narrow band UVB light source (Daavlin®, Bryan, Ohio). Following UVB irradiation, animals were returned to their home cage. Thermal hyperalgesia was assessed prior to dosing and approximately 1, 2, and 4 hours after dosing on Day 0 using a radiant heat plantar test apparatus (IITC Life Sciences©; Woodland Hills, Calif.). Animals were placed in individual acrylic chambers on a glass platform warmed to 30±2° C. and allowed to acclimate to their surroundings for a minimum of 15 minutes before testing. The stimulus was presented to the plantar surface and the timer was activated. The stimulus intensity was set such that pre-injury paw withdrawal latencies were approximately 12-18 seconds. Paw withdrawal latency values were recorded at the first observed nocifensive behavior (paw withdrawal, flinching, biting and/or licking). Three paw withdrawal latencies were measured for each hind paw per time point. The mean of the 3 values was taken as the paw withdrawal latency for that time point. A maximum cutoff latency of 30 seconds was used to prevent injury to the animal. The mean and standard error of the mean (SEM) were determined for each paw for each treatment group at each time point. Test compounds were administered orally at concentrations of 3, 10, 30 or 100 mg/kg; celecoxib was administered orally at a concentration of 30 mg/kg; and acetaminophen was administered orally at a concentration of 300 mg/kg. The control group received the vehicle (sterile water). In Table 4, ‘A’ designates >8 seconds of paw withdrawal latency, ‘B’ designates >6 and <8 seconds of paw withdrawal latency, and ‘C’ designates <6 seconds of paw withdrawal latency.
The results provided in Table 4 are for oral administration in rats. […] Furthermore, while acetaminophen was dosed at 300 mg/kg, compounds of Formulae (Ie), (Ih) and (Ik), or a pharmaceutically acceptable salt of any of the foregoing, were dosed at 3 mg/kg, 10 mg/kg and 100 mg/kg.

Chain of Opiate δ1 (P41143 whole entry): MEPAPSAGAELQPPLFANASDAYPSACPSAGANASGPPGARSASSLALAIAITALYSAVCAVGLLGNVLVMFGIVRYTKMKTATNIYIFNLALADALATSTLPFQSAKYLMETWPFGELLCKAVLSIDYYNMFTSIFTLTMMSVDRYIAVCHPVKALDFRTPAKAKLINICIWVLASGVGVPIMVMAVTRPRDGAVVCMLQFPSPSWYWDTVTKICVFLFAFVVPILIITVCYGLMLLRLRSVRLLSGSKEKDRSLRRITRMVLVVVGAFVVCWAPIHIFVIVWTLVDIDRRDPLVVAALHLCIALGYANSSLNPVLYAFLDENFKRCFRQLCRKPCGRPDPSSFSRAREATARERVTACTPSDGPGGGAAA
Chain of Opiate κ (P41145 whole entry): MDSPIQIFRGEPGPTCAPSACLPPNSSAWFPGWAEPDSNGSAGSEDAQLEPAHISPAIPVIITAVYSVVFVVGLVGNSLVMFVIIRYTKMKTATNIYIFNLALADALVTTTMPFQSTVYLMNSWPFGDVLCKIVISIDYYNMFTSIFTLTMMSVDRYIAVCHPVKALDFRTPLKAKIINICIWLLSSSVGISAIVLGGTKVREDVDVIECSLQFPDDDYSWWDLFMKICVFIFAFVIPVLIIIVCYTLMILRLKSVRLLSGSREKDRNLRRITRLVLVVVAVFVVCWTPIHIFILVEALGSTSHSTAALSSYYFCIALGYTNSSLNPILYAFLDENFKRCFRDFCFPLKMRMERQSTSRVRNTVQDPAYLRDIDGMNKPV
Chain of Opiate μ (P35372 whole entry): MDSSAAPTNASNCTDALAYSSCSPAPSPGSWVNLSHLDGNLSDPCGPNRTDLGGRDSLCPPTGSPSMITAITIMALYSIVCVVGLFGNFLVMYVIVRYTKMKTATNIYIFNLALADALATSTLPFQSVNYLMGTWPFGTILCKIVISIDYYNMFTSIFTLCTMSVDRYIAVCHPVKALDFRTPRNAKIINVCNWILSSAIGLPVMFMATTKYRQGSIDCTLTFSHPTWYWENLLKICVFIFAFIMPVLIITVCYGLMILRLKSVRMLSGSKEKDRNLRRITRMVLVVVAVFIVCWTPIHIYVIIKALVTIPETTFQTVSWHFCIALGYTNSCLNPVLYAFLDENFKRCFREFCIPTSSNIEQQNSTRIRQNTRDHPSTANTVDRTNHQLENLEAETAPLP
Chain of COX-1 (P23219 24-599): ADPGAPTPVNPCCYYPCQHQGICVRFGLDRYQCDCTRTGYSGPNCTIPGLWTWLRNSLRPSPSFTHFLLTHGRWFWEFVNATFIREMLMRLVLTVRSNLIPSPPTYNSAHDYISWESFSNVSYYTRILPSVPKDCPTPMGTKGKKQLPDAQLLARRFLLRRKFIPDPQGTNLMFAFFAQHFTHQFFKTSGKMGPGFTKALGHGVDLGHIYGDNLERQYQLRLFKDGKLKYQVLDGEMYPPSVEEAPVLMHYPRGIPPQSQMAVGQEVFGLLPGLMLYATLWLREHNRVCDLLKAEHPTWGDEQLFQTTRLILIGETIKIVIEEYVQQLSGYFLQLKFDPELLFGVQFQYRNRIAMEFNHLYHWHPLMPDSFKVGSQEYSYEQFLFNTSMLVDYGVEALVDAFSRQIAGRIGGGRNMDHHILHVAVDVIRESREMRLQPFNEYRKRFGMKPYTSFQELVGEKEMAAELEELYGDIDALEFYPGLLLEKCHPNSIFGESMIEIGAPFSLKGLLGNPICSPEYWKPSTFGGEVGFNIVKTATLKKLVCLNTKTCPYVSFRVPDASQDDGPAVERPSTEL

Regarding `CC(=O)Nc1ccc(O)cc1` [Acetaminophen, reference compound], the inhibition at 10 µM in series [1] is -1%; in series [2], -5%; in series [3] it was -7%; in series [4], 2%; in series [6], 3%. In addition, the “least preferred (drug associated) chamber residence time” value in series [5] is given as “no increase”. Moreover, the “paw withdrawal latency, 1 h” value in series [7] (1 h after dosing) is on record as “A (>8 seconds of paw withdrawal latency)”. The “paw withdrawal latency, 2 h” value in series [7] (2 h after dosing) is “A (>8 seconds of paw withdrawal latency)”. In addition, the “paw withdrawal latency, 4 h” value in series [7] (4 h after dosing) is reported as “A (>8 seconds of paw withdrawal latency)”.
